The results in this text go back to patent US7875604B2, “Compounds that inhibit HIV particle formation” (University of Virginia Patent Foundation, priority 2004, dated 2011).

“And” between values parts separate entries of the source, which are not always exact repeats. Equal entries are not always repeated.

One data set deals with fresh human PBMCs. The experiment in a line: MTS staining for PBMC viability to measure cytotoxicity. It is filed as cell-based. The procedure: (§1) For the standard PBMC assay, PHA-P stimulated cells from at least two normal donors were pooled (mixed together), diluted in fresh medium to a final concentration of 1×10^6 cells/mL, and plated in the interior wells of a 96 well round bottom microplate at 50 μL/well (5×10^4 cells/well) in a standard format developed by the Infectious Disease Research department of Southern Research Institute. Pooling (mixing) of mononuclear cells from more than one donor is used to minimize the variability observed between individual donors, which results from quantitative and qualitative differences in HIV infection and overall response to the PHA and IL-2 of primary lymphocyte populations. Each plate contains virus/cell control wells (cells plus virus), experimental wells (drug plus cells plus virus) and compound control wells (drug plus media without cells, necessary for MTS monitoring of cytotoxicity). Since HIV-1 is not cytopathic to PBMCs, this allows the use of the same assay plate for both antiviral activity and cytotoxicity measurements. Test drug dilutions were prepared at a 2× concentration in microtiter tubes and 100 μL of each concentration was placed in appropriate wells using the standard format. 50 μL of a predetermined dilution of virus stock was placed in each test well (final MOI≅0.1). The PBMC cultures were maintained for seven days following infection at 37° C., 5% CO2. After this period, cell-free supernatant samples were collected for analysis of reverse transcriptase activity as a measure of virus release. Following removal of supernatant samples, compound cytotoxicity was measured by addition of MTS to the plates for determination of cell viability. Wells were also examined microscopically and any abnormalities were noted.
At assay termination, assay plates were stained with the soluble tetrazolium-based dye MTS (CellTiter 96 Reagent, Promega) to determine cell viability and quantify compound toxicity. The mitochondrial enzymes of metabolically active cells metabolize MTS to yield a soluble formazan product. This allows the rapid quantitative analysis of cell viability and compound cytotoxicity. […] At termination of the assay, 20 μL of MTS reagent was added per well. The microtiter plates were then incubated 4-6 hrs at 37° C. The incubation intervals were chosen based on empirically determined times for optimal dye reduction. Adhesive plate sealers were used in place of the lids, the sealed plate was inverted several times to mix the soluble formazan product and the plate was read spectrophotometrically at 490/650 nm with a Molecular Devices Vmax or SpectraMaxPlus plate reader.
Compounds were tested in the PBMC assay using the maximum high-test concentration possible based on the supplied stocks which are listed in table 3. Compounds were prepared at a 2× high-test concentration by combining drug stock with tissue culture media at a ratio of 5 μL of drug to 995 μL of media. This 2× high-test sample was subsequently serially diluted in tissue culture media using 1/2 log dilutions. This series of 2× concentrated drug was subsequently diluted 1:1 by combining with an equal volume of cells in media in the 96-well plates used for the assay.

The test system of another data set is HIV-1 BR/93/021. The experiment in a line: Anti-HIV efficacy in fresh human PBMCs, reverse transcriptase readout, HIV-1 BR/93/021. It is filed as cell-based. The procedure: (§2) Compounds were evaluated for their ability to inhibit HIV replication in fresh human PBMCs. The assay was performed as follows.
(§3) Fresh human PBMCs, seronegative for HIV and HBV, were isolated from screened donors (Interstate Blood Bank, Inc. Memphis, Tenn.). Cells were pelleted/washed 2-3 times by low speed centrifugation and re-suspension in PBS to remove contaminating platelets. The Leukophoresed blood was then diluted 1:1 with Dulbecco's Phosphate Buffered Saline (DPBS) and layered over 14 mL of Lymphocyte Separation Medium (LSM; Cellgro® by Mediatech, Inc.; density 1.078+/−0.002 g/ml; Cat.#85-072-CL) in a 50 mL centrifuge tube and then centrifuged for 30 minutes at 600×g. Banded PBMCs were gently aspirated from the resulting interface and subsequently washed 2× with PBS by low speed centrifugation. After the final wash, cells were enumerated by trypan blue exclusion and re-suspended at 1×10^7 cells/mL in RPMI 1640 supplemented with 15% Fetal Bovine Serum (FBS), and 2 mM L-glutamine, 4 μg/mL Phytohemagglutinin (PHA-P, Sigma). The cells were allowed to incubate for 48-72 hours at 37° C. After incubation, PBMCs were centrifuged and resuspended in RPMI 1640 with 15% FBS, 2 mM L-glutamine, 100 U/mL penicillin, 100 μg/mL streptomycin, 10 μg/mL gentamycin, and 20 U/mL recombinant human IL-2 (R&D Systems, Inc). IL-2 is included in the culture medium to maintain the cell division initiated by the PHA mitogenic stimulation. PBMCs were maintained in this medium at a concentration of 1-2×10^6 cells/mL with biweekly medium changes until used in the assay protocol. Cells were kept in culture for a maximum of two weeks before being deemed too old for use in assays and discarded. Monocytes were depleted from the culture as the result of adherence to the tissue culture flask.
as §1
(§4) A microtiter plate-based reverse transcriptase (RT) reaction was utilized (Buckheit et al., AIDS Research and Human Retroviruses 7:295-302, 1991). Tritiated thymidine triphosphate (3H-TTP, 80 Ci/mmol, NEN) was received in 1:1 dH2O:Ethanol at 1 mCi/mL. […]

In a further data set the test system is HIV-1 NL4-3. The experiment in a line: Anti-HIV efficacy in fresh human PBMCs, reverse transcriptase readout, HIV-1 NL4-3. It is filed as cell-based. On the procedure: as §2, §3, §1, §4
Another data set deals with T1, HIV-1 Rev (Human immunodeficiency virus type 1 group M subtype B, UniProt P04618).
T1 construct: expressed in transfected cells
The experiment in a line: cell-based. On the procedure:
The eight compounds listed in Table 1 were also tested in an assay that measured HIV-1 Rev function. […] The reporter used for these assays is the Renilla Luciferase protein, which is an enzyme that produces detectable light when mixed with certain chemicals. For this assay, a cell line has been developed in which the production of the reporter by the cells requires the function of HIV-1 Rev. Therefore, if a drug candidate inhibits the function of Rev, it decreases the amount of the reporter produced by the cells. By using Renilla Luciferase as the reporter, the inhibition of Rev is easily detected as a decrease in the amount of light produced by the cells when mixed with the appropriate chemicals.
(§5) Compounds were tested in the Rev assay using the maximum high-test concentration possible based on the supplied stocks as shown in Table 3. Compounds were prepared at a 2× high-test concentration by combining drug stock with tissue culture media at a ratio of 5 μL of drug to 995 μL of media. This 2× high-test sample was subsequently serially diluted in tissue culture media using 1/2 log dilutions. This series of 2× concentrated drug was subsequently diluted 1:1 by combining with an equal volume of cells in media in the 96-well plates used for the assay.

The test system of another data set is HeLa. The experiment in a line: HIV-1 Rev assay toxicity/non-specificity readout (Firefly Luciferase). It is filed as cell-based. The following applies: 50% inhibition of Firefly Luciferase (toxicity/non-specificity), 24 hours; read-out: TC50 (the source's name). The procedure: The eight compounds listed in Table 1 were also tested in an assay that measured HIV-1 Rev function. The HIV-1 Rev assay is based upon the use of a reporter for detecting whether drug candidates are capable of inhibiting the function of the viral Rev protein. The reporter used for these assays is the Renilla Luciferase protein, which is an enzyme that produces detectable light when mixed with certain chemicals. For this assay, a cell line has been developed in which the production of the reporter by the cells requires the function of HIV-1 Rev. Therefore, if a drug candidate inhibits the function of Rev, it decreases the amount of the reporter produced by the cells. By using Renilla Luciferase as the reporter, the inhibition of Rev is easily detected as a decrease in the amount of light produced by the cells when mixed with the appropriate chemicals. Furthermore, the cell line for this assay has been engineered to use a second similar reporter (Firefly Luciferase) that detects whether drug candidates are toxic.
as §5, with “assay. Representative data for two of the compounds is also depicted in FIG. 5.” for “assay.”
Leptomycin B is a control compound known to inhibit Rev function.

T1 sequence (P04618 whole entry, looked up): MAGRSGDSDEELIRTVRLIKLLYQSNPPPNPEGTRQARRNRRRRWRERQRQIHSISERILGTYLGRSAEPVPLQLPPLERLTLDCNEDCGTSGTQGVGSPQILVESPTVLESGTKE

By IC50 is commonly meant the concentration that gives 50% inhibition. Take `Cc1cn([C@H]2C[C@H](N=[N+]=[N-])[C@@H](CO)O2)c(=O)[nH]c1=O` [AZT, reference compound]: the CC50 with fresh human PBMCs is greater than 1000 nM. Further, the “TI (TC50/IC50)” value in the data set with HIV-1 BR/93/021 (HIV-1 BR/93/021, PBMCs) is greater than 404.86; in the data set with HIV-1 NL4-3 (HIV-1 NL4-3, PBMCs), greater than 1612.90. The IC50 in the data set with HIV-1 BR/93/021 (HIV-1 BR/93/021, fresh human PBMCs, seven days, RT activity) was 2.47 nM; with HIV-1 NL4-3 (HIV-1 NL4-3, fresh human PBMCs, seven days, RT activity), 0.62 nM.
As for `CCC(=C/[C@H](C)C/C=C/C(C)=C/[C@@H](C)C(=O)[C@@H](C)[C@H](O)[C@@H](C)C/C(C)=C/C(=O)O)/C=C/[C@@H]1OC(=O)C=C[C@@H]1C` [Leptomycin B, reference compound], on HIV-1 Rev (50% inhibition of Renilla Luciferase, 24 hours, HeLa reporter line, read-out: IC50), the IC50 was 8.22 nM and 8.17 nM. For the same molecule, the “TI (TC50/IC50)” value at HIV-1 Rev (Rev assay) was 2.43 and 2.35. Further, in the data set on HeLa, the CC50 was 20 nM and 19.2 nM.
